Laboratory results from patent US20240101548A1, “HYDROXAMATE COMPOUND, PREPARATION METHOD THEREFOR AND APPLICATION THEREOF” (SHENZHEN CHIPSCREEN BIOSCIENCES CO., LTD., priority 2020, published 2024).
Where two headings read alike, the source gives them in different places.

Experiments:
Format in all cases: cell-based, human
[1] = test system: IL-10-induced JAK1/TYK2 signal pathway; assay: IL-10-induced JAK1/TYK2 signal pathway STAT3-Luc reporter gene assay in U2OS cells; details: Homo sapiens, U2OS cells, STAT3-Luc reporter, IL-10 10 ng/mL, read-out: Half inhibition dose (IC50) on IL-10-induced JAK1/TYK2 signal pathway
From the text: Cytokine IL-10 is one of the main members of IL-10 family. The receptor that cytokine IL-10 binds to consists of two kinds of subunits, i.e., IL-10R1 and IL-10R2, which respectively couple with JAK1 and TYK2. After the coupling of IL-10 with its receptor, interaction of phosphorylation occurs between JAK1 and TYK2 to form STAT3 docking site for phosphorylation of STAT3. The phosphorylated STAT3 enters the nucleus and drives the transcription and expression of downstream genes.
The reporter gene plasmid STAT3-Luc Reporter used in the present invention has luciferase expression sequence as the reporter gene, upstream of which is a promoter sequence containing multiple STAT3 binding sites. When phosphorylated STAT3 induced by IL-10 signal pathway binds to the promoter of STAT3-Luc Reporter plasmid, luciferase is transcribed and expressed. The excitation fluorescence catalyzed by Luciferase can be detected after the addition of […] substrate, whose intensity can quantitively reflect the activation level of the signal pathway.
Human osteosarcoma cell line U20S was commercially available from American Type Culture Collection (ATCC), and relevant culture conditions referred to those from ATCC. It was known that such cell line could express IL-10R2, JAK1, TYK2 and STAT3, therefore, by exogenous expression of IL-10R1 gene, a complete IL-10 signal pathway could be established. The human IL-10R1 subunit overexpression plasmid pCMV3-IL10RA-EGFP was constructed by Shanghai Genechem Co., Ltd., and capable of simultaneously expressing enhanced green fluorescent protein. In the subsequent detection and calculation, the signal of green fluorescent protein in the tested sample was used as a reference for transfection efficiency calibration of the luciferase reporter gene signal. Reporter plasmid STAT3-Luc Reporter was commercially available from Ji Man Biotech (Shanghai) Co., Ltd.
X-tremeGENE 9 DNA Transfection Reagent (Roche) was used for the transfection of plasmid DNA into cells, Cell Culture Lysis 5× reagent (Promega) and Luciferase Assay System (Promega) were used in cell lysate preparation and enzyme-substrate reaction for luciferase reporter gene detection. Green fluorescent protein signal and luciferase reporter gene signal were both detected by Tecan Spark™ 10M multimode microplate reader. The inhibition rate of the tested compound on the IL-10 signal pathway reporter gene signal and the half inhibition dose IC50 were both calculated using Microsoft Excel and GraphPad Prism 7.00 software.
U2OS cell line was inoculated in 96-well plate with flat bottom at 5000 cells per well, and cultured overnight at 37° C. and 5% CO2 followed by plasmid transfection. Following the instructions and using X-tremeGENE 9 DNA Transfection Reagent, pCMV3-IL10RA-EGFP and STAT3-Luc Reporter plasmids were co-transfected into the inoculated U2OS cells. After 24 hours of transfection, the tested compound was added respectively for a final concentration of 0, 0.1, 0.3, 1, 3, 10, 30, 100, or 300 nM. After 6 hours of culture at 37° C. and 5% CO2, IL-10 cytokine (Human IL-10 PEPROTECH 200-10-10UG) was added to each well for a final concentration of 10 ng/mL, the well in which neither compound nor cytokine was added was designated as 0% control well. The culture was continued for 24 hours before testing.
Cell lysate was prepared by using Cell Culture Lysis reagent and transferred to 96-well plate with half-well clear bottom. The green fluorescent protein signal value was detected at Ex485/Em520 using Tecan microplate reader, and recorded. After adding to each well the luciferase substrate from Luciferase Assay System, the signal value of luciferase-substrate reaction was immediately detected at 560 nm using Tecan microplate reader, and recorded.
Using Microsoft Excel software, the signal value of luciferase-substrate reaction of each well was calculated and calibrated based on the signal value of green fluorescent protein of each well. […]

[2] = test system: EPO-induced JAK2 signal pathway; assay: EPO-induced proliferation of UT-7 cells (JAK2 signal); details: Homo sapiens, UT7; UT-7 cell proliferation, EPO 10 ng/mL, 72 hours; read-out: Inhibition activity IC50 on EPO-induced JAK2 signal pathway
In short: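 […] was derived from inhibition rates across doses, scaled between wells lacking compound and cytokine (0) and EPO without compound (100), using alamarBlue fluorescence at Ex530/Em590. Compound (final 0-10000 nM) and 10 ng/mL EPO were given to UT-7 cells at 15000 per well for 72 h at 37° C.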

[3] = test system: IL-2-induced JAK1/JAK3 signal pathway; assay: IL-2-induced proliferation of KHYG-1 cells (JAK1/JAK3 signal); details: Homo sapiens; KHYG-1 cell proliferation, IL-2 10 ng/mL, 72 hours; read-out: Inhibition activity IC50 on IL-2-induced JAK1/JAK3 signal pathway
In short: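 Controls were wells lacking both compound and cytokine (0%) and compound-free IL-2 wells (100%). C50 was calculated from inhibition rates across doses.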

IC50 ([1]; U2OS) [µM] | Structure (SMILES) | IC50 [2] [µM] | IC50 [3] [µM] | IC50 [1] [µM]
0.00158 | CONC(=O)c1cnc(NC(=O)C2CC2)cc1Nc1ccccc1N(C)S(C)(=O)=O [Example 2, 6-(cyclopropylcarboxamido)-N-methoxy-4-((2-(N-methylmethanesulfonamido)phenyl)amino)nicotinamide] | > 10 | > 10 | 
0.000705 | CONC(=O)c1cnc(Nc2ccc(F)cn2)cc1Nc1ccccc1N(C)S(C)(=O)=O [Example 4, 6-((5-fluoropyridin-2-yl)amino)-N-methoxy-4-((2-(N-methylmethanesulfonamido)phenyl)amino)nicotinamide] | > 10 | > 10 | 
 | CONC(=O)c1cnc(NC(=O)C2CC2)cc1Nc1ccc(C(F)(F)F)cc1N(C)S(C)(=O)=O [Example 10, 6-(cyclopropylcarboxamido)-N-methoxy-4-((2-(N-methylmethanesulfonamido)-4-(trifluoromethyl)phenyl)amino)nicotinamide] | > 10 | > 10 | 0.00118
 | CONC(=O)c1cnc(NC(=O)C2CC2)cc1Nc1ccc(C2CC2)cc1N(C)S(C)(=O)=O [Example 12, 6-(cyclopropylcarboxamido)-4-((4-cyclopropyl-2-(N-methylmethanesulfonamido)phenyl)amino)-N-methoxy nicotinamide] | > 10 | > 10 | 0.000961
0.0011 | CONC(=O)c1cnc(Nc2ccc(F)cn2)cc1Nc1ccc(C2CC2)cc1N(C)S(C)(=O)=O [Example 13, 4-((4-cyclopropyl-2-(N-methylmethanesulfonamido)phenyl)amino)-6-((5-fluoropyridin-2-yl)amino)-N-methoxy nicotinamide] | > 10 | > 10 | 
0.000874 | CONC(=O)c1cnc(Nc2cccc(F)n2)cc1Nc1ccc(C2CC2)cc1N(C)S(C)(=O)=O [Example 14, 4-((4-cyclopropyl-2-(N-methylmethanesulfonamido)phenyl)amino)-6-((6-fluoropyridin-2-yl)amino)-N-methoxy nicotinamide] | > 10 | > 10 | 
0.00127 | CONC(=O)c1cnc(Nc2ccc(OC)cn2)cc1Nc1ccc(C2CC2)cc1N(C)S(C)(=O)=O [Example 16, 4-((4-cyclopropyl-2-(N-methylmethanesulfonamido)phenyl)amino)-N-methoxy-6-((5-methoxypyridin-2-yl)amino)nicotinamide] | > 10 | > 10 | 
 | C#Cc1ccc(Nc2cc(Nc3ccc(OC)cn3)ncc2C(=O)NOC)c(N(C)S(C)(=O)=O)c1 [Example 18, 4-((4-ethynyl-2-(N-methylmethanesulfonamido)phenyl)amino)-N-methoxy-6-((5-methoxypyridin-2-yl)amino)nicotinamide] | > 10 | > 10 | 0.000784
0.00106 | C#Cc1ccc(Nc2cc(Nc3cccc(F)n3)ncc2C(=O)NOC)c(N(C)S(C)(=O)=O)c1 [Example 19] | > 10 | > 10 | 
0.000955 | CCONC(=O)c1cnc(Nc2ccc(OC)cn2)cc1Nc1ccc(C2CC2)cc1N(C)S(C)(=O)=O [Example 20, 4-((4-cyclopropyl-2-(N-methylmethanesulfonamido)phenyl)amino)-N-ethoxy-6-((5-methoxypyridin-2-yl)amino)nicotinamide] | > 10 | > 10 | 
0.00057 | CCONC(=O)c1cnc(Nc2cccc(F)n2)cc1Nc1ccc(C2CC2)cc1N(C)S(C)(=O)=O [Example 22, 4-((4-cyclopropyl-2-(N-methylmethanesulfonamido)phenyl)amino)-N-ethoxy-6-((6-fluoropyridin-2-yl)amino)nicotinamide] | > 10 | > 10 | 
0.00233 | CONC(=O)c1cnc(NC(=O)C2CC2)cc1Nc1cccc(-c2ccn(C)n2)c1OC [Example 29, 6-(cyclopropylcarboxamido)-N-methoxy-4-((2-methoxy-3-(1-methyl-1H-pyrazol-3-yl)phenyl)amino)nicotinamide] | > 10 | > 10 | 
0.000686 | CONC(=O)c1cnc(Nc2cccc(F)n2)cc1Nc1cccnc1N(C)S(C)(=O)=O [Example 36, 6-((6-fluoropyridin-2-yl)amino)-N-methoxy-4-((2-(N-methylmethanesulfonamido)pyridin-3-yl)amino)nicotinamide] | > 10 | > 10 | 
0.000506 | CONC(=O)c1cnc(Nc2cccc(F)n2)cc1Nc1cccc(F)c1N(C)S(C)(=O)=O [Example 38, 4-((3-fluoro-2-(N-methylmethanesulfonamido)phenyl)amino)-6-((6-fluoropyridin-2-yl)amino)-N-methoxy nicotinamide] | > 10 | > 10 | 
 | CONC(=O)c1cnc(NC(=O)C2CC2)cc1Nc1cccc(-n2cccn2)c1OC [Example 41, 6-(cyclopropylcarboxamido)-N-methoxy-4-((2-methoxy-3-(1H-pyrazol-1-yl)phenyl)amino)nicotinamide] | > 10 | > 10 | 0.0017
0.00151 | CONC(=O)c1cnc(Nc2cccc(F)n2)cc1Nc1cccc(-n2cccn2)c1OC [Example 42, 6-((6-fluoropyridin-2-yl)amino)-N-methoxy-4-((2-methoxy-3-(1H-pyrazol-1-yl)phenyl)amino)nicotinamide] | > 10 | > 10 | 
0.00118 | CONC(=O)c1cnc(Nc2ccc(C#N)cn2)cc1Nc1ccccc1N(C)S(C)(=O)=O [Example 43, 6-((5-cyanopyridin-2-yl)amino)-N-methoxy-4-((2-(N-methylmethanesulfonamido)phenyl)amino)nicotinamide] | > 10 | > 10 | 
 | CCONC(=O)c1cnc(Nc2ncc(F)cc2F)cc1Nc1cc(F)c(C(C)C)cc1N(C)S(C)(=O)=O [Example 228, 6-((3,5-difluoropyridin-2-yl)amino)-N-ethoxy-4-((5-fluoro-4-isopropyl-2-(N-methylmethanesulfonamido)phenyl)amino)nicotinamide] | > 10 | > 10 | 
0.00975 | [2H]C([2H])([2H])NC(=O)c1cnc(Nc2ccccn2)cc1Nc1cccc(-c2ncc(F)cn2)c1OC [Example 253, 4-((3-(5-fluoropyrimidin-2-yl)-2-methoxyphenyl)amino)-N-(methyl-d3)-6-(pyridin-2-ylamino)nicotinamide, reference compound] |  |  | 
 | CCONC(=O)c1nnc(Nc2cc(C)nc(C)n2)cc1Nc1cccc(-c2ncc(C)cn2)c1OC [Example 276, 6-((2,6-dimethylpyrimidin-4-yl)amino)-N-ethoxy-4-((2-methoxy-3-(5-methylpyrimidin-2-yl)phenyl)amino)pyridazine-3-carboxamide] | > 10 | > 10 | 
